# Measurements from article PMC10786919, “Design-rules for stapled peptides with in vivo activity and their application to Mdm2/X antagonists” (Nature Communications, 2024).
# Read-outs that look alike come from different tables or passages of the source. Positions of bridges follow the written chain, without caps; N, C: chain ends. Non-standard residues stand in square brackets, D forms with d. Residues, ends and D or L forms follow the SMILES beside them. Lys(N3) = [N-]=[N+]=NCCCC[C@H](N)C(=O)O; R8 = C=CCCCCCC[C@@](C)(N)C(=O)O; Cba = N[C@@H](CC1CCC1)C(=O)O; S5 = C=CCCC[C@](C)(N)C(=O)O; βAla = NCCC(=O)O
# Tests used:
# [1] = Nanoclick permeability assay
# In short: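 Azido-peptide permeability was read as loss of NanoBRET signal (donor 450 nm, acceptor 610 nm) after adding NanoBret618-azide at 10 μM final.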
# [2] = Lactate dehydrogenase (LDH) release assay; assay type: cell-based
# In short: (§1)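 HCT116 cells stably carrying a p53-responsive β-lactamase reporter were seeded at 8000 cells per well with a final DMSO level of 0.5%. Membrane integrity was assessed by lactate dehydrogenase release using a homogeneous fluorometric kit. Values are geometric means of at least three biological replicates.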
# HCT116 cells = assay: Lactate dehydrogenase (LDH) release assay; assay type: cell-based
# In short: as §1
# [3] = Experimental LogD (partition coefficient); conditions: for logD: not stated, Partition Coeff LogD
# [4] = Solubility assay (kinetic solubility, PBS pH 7); assay type: physicochemical; conditions: for solubility kinetic: pH 7, aqueous buffer, kinetic from dmso stock, read-out: Solubility
# In short: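 Quantitation uses an external standard at 100 µM, prepared from 10 mM stock in acetonitrile:methanol:DMSO (10:80:10). Solubility (µM) = (peak area of sample ÷ peak area of standard) × standard concentration.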
# [5] = 0% FBS 4Hr, read-out: LDH: Cytotoxicity assay EC50
# [6] = 10% FBS 4Hr, read-out: LDH: Cytotoxicity assay EC50
# [7] = Nanoclick permeability assay EC50
SMILES,EPSA (physchem) [A^2],cell entry EC50 [1] [nM],"EC50 [2, 5] [µM]",LDH: Cytotoxicity assay % Effect (HCT116 cells; 0% FBS 4Hr) [%],logD [3],"solubility kinetic ([4]; pH 7, PBS) [µM]","EC50 ([2]; 4 hours, 0% serum, read-out: LDH Cytotoxicity assay EC50) [µM]",LDH: Cytotoxicity assay % Effect (HCT116 cells; 0% FBS 16Hr) [%],"EC50 [2, 6] [µM]",LDH: Cytotoxicity assay % Effect (HCT116 cells; 10% FBS 4Hr) [%],Partition Coeff LogD [3],Partition Coeff LogD ([3]; experimental),Solubility [4],"Solubility ([4]; pH 7, PBS)","cell entry EC50 [1, 7] [nM]",EC50 ([2]; LDH: Cytotoxicity assay EC50) [µM]
"CC(=O)N[C@@H](CCCCN=[N+]=[N-])C(=O)NCCC(=O)N[C@@H](CC(C)C)C(=O)N[C@@H](C)C(=O)N[C@@H](Cc1ccccc1)C(=O)N[C@]1(C)CCCCCCC=CCCC[C@@](C)(C(=O)N[C@@H](CO)C(=O)N[C@@H](C)C(=O)N[C@@H](C)C(N)=O)NC(=O)[C@H](CC2CCC2)NC(=O)[C@H](C)NC(=O)[C@H](C)NC(=O)[C@H](Cc2c[nH]c3ccccc23)NC(=O)[C@H](Cc2ccc(O)cc2)NC(=O)[C@H](CCC(=O)O)NC1=O [MP-962, AZIDE-ATSP-7041 (T2A,Q9A)] (Ac-[Lys(N3)][βAla]LAF[R8]EYWAA[Cba][S5]SAA-NH2; staple 6-13)",216,77.6,> 50,4.327,2.96,77.5,–,–,–,–,–,–,–,–,–,–
"CC(=O)N[C@@H](CCCCN=[N+]=[N-])C(=O)NCCC(=O)N[C@@H](CC(C)C)C(=O)N[C@H](C(=O)N[C@@H](Cc1ccccc1)C(=O)N[C@]1(C)CCCCCCC=CCCC[C@@](C)(C(=O)N[C@@H](CO)C(=O)N[C@@H](C)C(=O)N[C@@H](C)C(N)=O)NC(=O)[C@H](CC2CCC2)NC(=O)[C@H](CCC(N)=O)NC(=O)[C@H](C)NC(=O)[C@H](Cc2c[nH]c3ccccc23)NC(=O)[C@H](Cc2ccc(O)cc2)NC(=O)[C@H](CCCCN)NC1=O)[C@@H](C)O [MP-548, AZIDE-ATSP-7041 (E5K)]",213,1020,12.3,84.33,3.25,5,12.2,14.03,–,–,–,–,–,–,–,–
"CC(=O)N[C@@H](CCCCN=[N+]=[N-])C(=O)NCCC(=O)N[C@@H](CC(C)C)C(=O)N[C@H](C(=O)N[C@@H](Cc1ccccc1)C(=O)N[C@]1(C)CCCCCCC=CCCC[C@@](C)(C(=O)N[C@@H](CO)C(=O)N[C@@H](C)C(=O)N[C@@H](C)C(N)=O)NC(=O)[C@H](CC2CCC2)NC(=O)[C@H](CCC(N)=O)NC(=O)[C@H](C)NC(=O)[C@H](Cc2c[nH]c3ccccc23)NC(=O)[C@H](Cc2ccc(O)cc2)NC(=O)[C@H](Cc2c[nH]cn2)NC1=O)[C@@H](C)O [MP-175, AZIDE-ATSP-7041 (E5H)]",214,316,> 50,2.645,3.42,2,–,7.95,> 50,-1.124,–,–,–,–,–,–
"CC(=O)N[C@@H](CCCCN=[N+]=[N-])C(=O)NCCC(=O)N[C@@H](CC(C)C)C(=O)N[C@H](C(=O)N[C@@H](Cc1ccccc1)C(=O)N[C@]1(C)CCCCCCC=CCCC[C@@](C)(C(=O)N[C@@H](CO)C(=O)N[C@@H](C)C(=O)N[C@@H](C)C(N)=O)NC(=O)[C@H](CC2CCC2)NC(=O)[C@H](CCC(N)=O)NC(=O)[C@H](C)NC(=O)[C@H](Cc2c[nH]c3ccccc23)NC(=O)[C@H](Cc2ccc(O)cc2)NC(=O)[C@H](C)NC1=O)[C@@H](C)O [MP-954, AZIDE-ATSP-7041 (E5A)] (Ac-[Lys(N3)][βAla]LTF[R8]AYWAQ[Cba][S5]SAA-NH2; staple 6-13)",205,217,> 50,9.323,–,–,–,-0.76,> 50,15.23,Poorly Behaved,P.B.,P.B.,Poorly Behaved,–,–
CC(=O)N[C@@H](CCCCN=[N+]=[N-])C(=O)NCCC(=O)N[C@@H](CC(C)C)C(=O)N[C@H](C(=O)N[C@@H](Cc1ccccc1)C(=O)N[C@]1(C)CCCCCCC=CCCC[C@@](C)(C(=O)N[C@@H](CO)C(=O)N[C@@H](Cc2ccccc2)C(=O)N[C@@H](Cc2ccccc2)C(N)=O)NC(=O)[C@H](CC2CCC2)NC(=O)[C@H](CCC(N)=O)NC(=O)[C@H](C)NC(=O)[C@H](Cc2c[nH]c3ccccc23)NC(=O)[C@H](Cc2ccc(O)cc2)NC(=O)[C@H](Cc2c[nH]c3ccccc23)NC1=O)[C@@H](C)O [MP-542] (Ac-[Lys(N3)][βAla]LTF[R8]WYWAQ[Cba][S5]SFF-NH2; staple 6-13),242,–,–,–,4.46,–,–,–,–,–,–,–,–,Poorly Behaved,93.2,> 50.6
"CC(=O)N[C@@H](CCCCN=[N+]=[N-])C(=O)NCCC(=O)N[C@@H](CC(C)C)C(=O)N[C@@H](Cc1c[nH]cn1)C(=O)N[C@@H](Cc1ccccc1)C(=O)N[C@]1(C)CCCCCCC=CCCC[C@@](C)(C(=O)N[C@@H](CO)C(=O)N[C@@H](C)C(=O)N[C@@H](C)C(N)=O)NC(=O)[C@H](CC2CCC2)NC(=O)[C@H](CCC(N)=O)NC(=O)[C@H](C)NC(=O)[C@H](Cc2c[nH]c3ccccc23)NC(=O)[C@H](Cc2ccc(O)cc2)NC(=O)[C@H](CCC(=O)O)NC1=O [MP-174, AZIDE-ATSP-7041 (T2H)]",225,50.6,> 50,2.115,2.84,–,–,21.18,–,–,–,–,–,–,–,–
CC(=O)N[C@@H](CCCCN=[N+]=[N-])C(=O)NCCC(=O)N[C@@H](CC(C)C)C(=O)N[C@H](C(=O)N[C@@H](Cc1ccccc1)C(=O)N[C@]1(C)CCCCCCC=CCCC[C@@](C)(C(=O)N[C@@H](CO)C(=O)N[C@@H](C)C(=O)N[C@@H](C)C(N)=O)NC(=O)[C@H](CC2CCC2)NC(=O)C(C)(C)NC(=O)[C@H](C)NC(=O)[C@H](Cc2c[nH]c3ccccc23)NC(=O)[C@H](Cc2ccc(O)cc2)NC(=O)[C@H](CCC(=O)O)NC1=O)[C@@H](C)O [MP-171],222,–,–,–,3,34,–,–,–,–,–,–,–,–,195,> 50
CC(=O)N[C@@H](CCCCN=[N+]=[N-])C(=O)NCCC(=O)N[C@@H](Cc1ccc(O)cc1)C(=O)N[C@H](C(=O)N[C@@H](Cc1ccccc1)C(=O)N[C@]1(C)CCCCCCC=CCCC[C@@](C)(C(=O)N[C@@H](CO)C(=O)N[C@@H](C)C(=O)N[C@@H](C)C(N)=O)NC(=O)[C@H](CC2CCC2)NC(=O)[C@H](Cc2c[nH]c3ccccc23)NC(=O)[C@H](C)NC(=O)[C@H](Cc2c[nH]c3ccccc23)NC(=O)[C@H](Cc2ccc(O)cc2)NC(=O)[C@H](Cc2c[nH]c3ccccc23)NC1=O)[C@@H](C)O [MP-540] (Ac-[Lys(N3)][βAla]YTF[R8]WYWAW[Cba][S5]SAA-NH2; staple 6-13),253,–,–,–,3.67,2,–,–,–,–,–,–,–,–,94.2,> 50.6
CC(=O)N[C@@H](CCCCN=[N+]=[N-])C(=O)NCCC(=O)N[C@@H](CC(C)C)C(=O)N[C@H](C(=O)N[C@@H](Cc1ccccc1)C(=O)N[C@]1(C)CCCCCCC=CCCC[C@@](C)(C(=O)N[C@@H](CO)C(=O)N[C@@H](C)C(=O)N[C@@H](CC(C)C)C(N)=O)NC(=O)[C@H](CC2CCC2)NC(=O)[C@H](CCC(N)=O)NC(=O)[C@H](C)NC(=O)[C@H](Cc2c[nH]c3ccccc23)NC(=O)[C@H](Cc2c[nH]c3ccccc23)NC(=O)[C@H](Cc2c[nH]c3ccccc23)NC1=O)[C@@H](C)O [MP-544] (Ac-[Lys(N3)][βAla]LTF[R8]WWWAQ[Cba][S5]SAL-NH2; staple 6-13),227,–,–,–,–,–,–,–,–,–,Poorly Behaved,–,–,Poorly Behaved,124,> 50.6
CC(=O)N[C@@H](CCCCN=[N+]=[N-])C(=O)NCCC(=O)N[C@@H](CCCNC(=N)N)C(=O)N[C@H](C(=O)N[C@@H](Cc1ccccc1)C(=O)N[C@]1(C)CCCCCCC=CCCC[C@@](C)(C(=O)N[C@@H](CO)C(=O)N[C@@H](CCCNC(=N)N)C(=O)N[C@@H](C)C(N)=O)NC(=O)[C@H](CC2CCC2)NC(=O)[C@H](CCC(N)=O)NC(=O)[C@H](CCCNC(=N)N)NC(=O)[C@H](Cc2c[nH]c3ccccc23)NC(=O)[C@H](Cc2ccc(O)cc2)NC(=O)[C@H](CCC(=O)O)NC1=O)[C@@H](C)O [MP-539] (Ac-[Lys(N3)][βAla]RTF[R8]EYWRQ[Cba][S5]SRA-NH2; staple 6-13),222,–,–,–,2.4,97.5,–,–,–,–,–,–,–,–,293,13.3
CC(=O)N[C@@H](CCCCN=[N+]=[N-])C(=O)NCCC(=O)N[C@@H](CC(C)C)C(=O)N[C@@H](Cc1c[nH]c2ccccc12)C(=O)N[C@@H](Cc1ccccc1)C(=O)N[C@]1(C)CCCCCCC=CCCC[C@@](C)(C(=O)N[C@@H](CO)C(=O)N[C@@H](C)C(=O)N[C@@H](C)C(N)=O)NC(=O)[C@H](CC2CCC2)NC(=O)[C@H](CCC(N)=O)NC(=O)[C@H](C)NC(=O)[C@H](Cc2c[nH]c3ccccc23)NC(=O)[C@H](Cc2ccc(O)cc2)NC(=O)[C@H](CCC(=O)O)NC1=O [MP-1184] (Ac-[Lys(N3)][βAla]LWF[R8]EYWAQ[Cba][S5]SAA-NH2; staple 6-13),239,–,–,–,3.21,28.5,–,–,–,–,–,–,–,–,360,> 50
